The record followed here is patent publication US12275953B2, “Methods for screening host cells expressing target proteins” (Industrial Technology Research Institute, priority 2020, dated 2025).

Read-outs that look alike come from different tables or passages of the source.

In data set [1] the test system is SKBR3 breast cancer cells rich in HER2 antigen. Nature of the data set: ADCC biological activity reporter gene assay (Jurkat-hFcγRIIIa-NFAT effector cells, luciferase). The note with it: compared with the validated purified Anti-HER2 IgG1 (h4D5) recombinant antibody protein; 24 hours of reaction. It counts as cell-based. The method, then: Jurkat-hFcγRIIIa-NFAT gene transgenic cells was used as effector cells and SKBR3 breast cancer cells rich in HER2 antigen was used as target cells in ADCC biological activity reporter gene detection system (Promega, #G9790).
First, 100 μl of SKBR3 cells with a cell density of 10^5/ml were added to the 96-well culture plate, placed at 37° C. for overnight culture to allow the cells to adhere and grow, the supernatant was removed the next day, and 25 μl of serially diluted recombinant antibodies prepared in […] medium containing 0.5% fetal bovine serum were added. Next, 25 μl of lurkat-hFcγRIIIa-NFAT effector cells with a cell density of 6×10^6/ml were added.
In general terms: In a reporter assay the amount or activity of a reporter protein is the signal.

Data set [2] deals with CHOK1 cell lines Fth1-WT and Fth1-KO transfected with pCDNA3.1-CMV-cgFth1-p2A-EGFP. Nature of the data set: Screening efficiency of transfected cells under iron ion-induced ferroptosis (Celigo Image Cytometer). It counts as cell-based, Chinese hamster. The procedure: After 24 hours of adherent culture in F12 medium (Ham's F-12 Nutrient Mix, Gibco) containing 10% FBS, the transfection of vector (pCDNA3.1-CMV-cgFth1-p2A-EGFP) was carried out with Lipofectamine 3000 (Thermo Fisher Scientific Inc.) to promote the overexpression of FTH1 gene. 24 hours after the DNA transfection of the vectors, 125 μM ferrous sulfate (FeSO4) was added to the cell culture broth, and at the same time different doses of ferroptosis inducers FINO2 (0 μM to 20 μM) were added to induce ferroptosis. After 3 days (72 hours) of action, the Celigo Image Cytometer (Nexcelom) was used to analyze the cell morphology, viability, cell count, fluorescent cell count, and fluorescence quantification, thereby estimating the screening efficiency.

Data set [3] has as its system HEK293T cell line. The note with it: 125 μM FeSO4, 72 hours, cells transfected with pCDNA3.1-CMV-cgFth1-p2A-EGFP vs Mock vector. The procedure: (§1) After 24 hours of adherent culture in F12 medium (Ham's F-12 Nutrient Mix, Gibco) containing 10% FBS, the transfection of vectors (pCDNA3.1-CMV-cgFth1-p2A-EGFP and pCDNA3.1-CMV-p2A-EGFP_Mock, which served as a blank control group) were carried out with Lipofectamine 3000 (Thermo Fisher Scientific Inc.) to promote the overexpression of FTH1 gene. 24 hours after the DNA transfection of the vectors, 125 μM ferrous sulfate (FeSO4) was added to the cell culture broth, and at the same time different doses of ferroptosis inducers FINO2 (0 μM to 20 μM) were added to induce ferroptosis. After 3 days (72 hours) of action, the Celigo Image Cytometer (Nexcelom) was used to analyze the fluorescence cell count and fluorescence quantification, thereby estimating the screening efficiency.

Data set [4] deals with VERO cell line. To be noted: 125 μM FeSO4, 72 hours, cells transfected with pCDNA3.1-CMV-cgFth1-p2A-EGFP vs Mock vector. The procedure: as §1
The subject of data set [5] is CHOK1 cell lines Fth1_WT and Fth1_KO.
The test system is the same in data set [6]. The data set can be described thus: Cytotoxicity test of screening medium formulations (AlamarBlue cell viability). The note with it: FINO2 and fatty acid PA together, without the addition of iron ions FeSO4. In general terms: Resazurin is reduced to fluorescent resorufin, in cell work by metabolically active cells.

For “V3: Anti-HER2 IgG1 (h4D5) recombinant antibody from cell line C8, vector pcDNA3.1-CMV-GOI1-furin-p2A-GOI2-IRES-cgFth1, without adding iron ions”, in data set [1], the ADCC effect result was “could obviously induce ADCC”.

As for `CC1(CCO)CC2(CCC(C(C)(C)C)CC2)OO1` (centres unmarked) [FINO2], the “relation of increased dose to overall cell viability” value in data set [2] (FINO2 0 μM to 20 μM with 125 μM FeSO4, 72 hours) is listed as “negatively correlated with overall cell viability”. The molecule also registered a cell screening rate in data set [2] (high dose of ferroptosis inducer (>15 μM), 125 μM FeSO4, 72 hours) of 100%. Further, the “concentration producing significant screening effects” value stood at 1.25 µM in data set [3] and 5 µM in data set [4]. In addition, in data set [5], the cytotoxicity result is “did not cause cytotoxicity”.

Take `CCCCCCCCCCCCCCCC(=O)O` [PA, Palmitic acid]: in data set [6], the cytotoxicity entry is “did not cause cytotoxicity”.

Regarding “V2: Anti-HER2 IgG1 (h4D5) recombinant antibody produced by expression vector pBudCE4.1-CMV-GOI1-SV40-cgFth1-EF1α-GOI2”, the ADCC effect result in data set [1] is “could obviously induce ADCC”.
